Measured values taken from article PMC7037682, “Herb–Drug Interaction of Red Ginseng Extract and Ginsenoside Rc with Valsartan in Rats” (Molecules, 2020).
Where two headings read alike, the source gives them in different places. Each block holds one molecule with its values, some of them ahead of it.

Assays:
OCT1 = biological target: T1, OCT1 (Homo sapiens, UniProt O15245); assay: Inhibition of OCT1-mediated [3H]MPP+ uptake in HEK293-OCT1 cells
T1 sequence (O15245 1-554): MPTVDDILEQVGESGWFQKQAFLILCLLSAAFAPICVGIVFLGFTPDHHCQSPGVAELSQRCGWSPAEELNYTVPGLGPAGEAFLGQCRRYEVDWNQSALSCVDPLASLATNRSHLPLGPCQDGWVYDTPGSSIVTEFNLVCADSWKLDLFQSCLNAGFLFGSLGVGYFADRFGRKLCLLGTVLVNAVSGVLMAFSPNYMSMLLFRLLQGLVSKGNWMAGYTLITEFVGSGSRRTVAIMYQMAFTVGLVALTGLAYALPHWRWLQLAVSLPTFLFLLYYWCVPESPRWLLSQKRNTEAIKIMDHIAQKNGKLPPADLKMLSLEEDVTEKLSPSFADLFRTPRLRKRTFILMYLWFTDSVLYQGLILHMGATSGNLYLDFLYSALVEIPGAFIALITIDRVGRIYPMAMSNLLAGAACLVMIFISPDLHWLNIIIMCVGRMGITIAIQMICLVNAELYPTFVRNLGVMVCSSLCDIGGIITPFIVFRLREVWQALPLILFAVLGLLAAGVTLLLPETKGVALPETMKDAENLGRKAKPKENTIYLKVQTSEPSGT
Method: HEK293 cells overexpressing the OCT1, OCT2, OAT1, OAT3, OATP1B1, and OATP1B3 transporters (HEK293-OCT1, -OCT2, -OAT1, -OAT3, -OATP1B1, and -OATP1B3, respectively) and HEK293-mock cells (Corning Life Sciences; Woburn, MA, USA) were used and characterized as previously described.
HEK293 cells overexpressing drug transporters and HEK293-mock cells were seeded in poly-D-lysine-coated 96-well plates at a density of 10^5 cells/well and were cultured in DMEM supplemented with 10% FBS, 5 mM non-essential amino acids, and 2 mM sodium butyrate in a humidified atmosphere with 8% CO2 at 37 °C.
To examine the effects of ginsenosides and typical inhibitors on transporter activity, aliquots (100 μL) of HBSS containing the probe substrate and ginsenosides or typical inhibitors were added to the cells after aspirating pre-incubated HBSS. The concentrations and probe substrates were as follows: 0.1 μM [^3H]MPP^+ for OCT1 and OCT2, 0.1 μM [^3H]PAH for OAT1, 0.1 μM [^3H]ES for OAT3 and OATP1B1, and 0.1 μM [^3H]EG for OATP1B3. […] Then the uptake of probe substrates into HEK293-mock cells and HEK293-OCT1, -OCT2, -OAT1, -OAT3, -OATP1B1, and -OATP1B3 cells in the presence and absence of typical inhibitor or each ginsenoside with previously described concentration range was measured for 5 min. Immediately after placing the plates on ice, the cells were washed three times with 100 μL of ice-cold HBSS, followed by lysing with 50 μL of 10% SDS solution and mixing with 150 μL of Optiphase cocktail solution (Perkin Elmer Inc., Boston, MA, USA). The radioactivity of the probe substrates in the cells was determined using a liquid scintillation counter.
In the inhibition studies, the uptake rate of substrate by HEK293 cells overexpressing the respective transporters was used as the control (100%) and the uptake rate of substrates in the presence of typical inhibitors or ginsenosides expressed as a percentage of the control. The inhibition data were fitted to an inhibitory effect model using Sigma plot (version 10.0; Systat Software Inc., San Jose, CA, USA). IC50 value indicated the half-maximal inhibitory concentration of the inhibitor.

UGT1A9 = conditions: cited from earlier work; for IC50: read-out: IC50 UGT1A9
OATP1B1 = biological target: T2, OATP1B1 (Homo sapiens, UniProt Q9Y6L6); assay: Inhibition of OATP1B1-mediated valsartan uptake in HEK293-OATP1B1 cells; format: cell-based; design: host or cells: HEK293; conditions: 5 μM valsartan, 5 min
T2 sequence (Q9Y6L6 1-691): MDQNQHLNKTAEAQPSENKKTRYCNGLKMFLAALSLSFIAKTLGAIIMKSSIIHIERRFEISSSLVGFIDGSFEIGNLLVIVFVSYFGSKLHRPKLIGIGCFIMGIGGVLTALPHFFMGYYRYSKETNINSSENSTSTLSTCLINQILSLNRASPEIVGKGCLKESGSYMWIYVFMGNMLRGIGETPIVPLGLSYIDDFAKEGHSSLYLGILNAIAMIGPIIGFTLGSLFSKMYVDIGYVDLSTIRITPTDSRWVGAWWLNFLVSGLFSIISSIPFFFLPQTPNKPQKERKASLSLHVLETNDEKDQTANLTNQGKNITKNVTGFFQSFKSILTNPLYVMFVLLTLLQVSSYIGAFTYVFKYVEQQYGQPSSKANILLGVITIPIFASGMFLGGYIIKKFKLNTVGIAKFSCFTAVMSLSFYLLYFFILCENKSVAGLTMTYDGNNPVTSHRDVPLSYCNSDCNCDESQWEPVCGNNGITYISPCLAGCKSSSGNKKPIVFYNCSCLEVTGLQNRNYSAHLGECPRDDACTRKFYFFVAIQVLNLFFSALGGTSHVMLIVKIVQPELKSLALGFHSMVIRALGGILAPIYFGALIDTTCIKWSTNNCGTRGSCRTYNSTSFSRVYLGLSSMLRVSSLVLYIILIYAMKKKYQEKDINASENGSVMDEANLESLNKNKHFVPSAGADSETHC
Method: Transporter mediated uptake of probe substrates or valsartan was calculated by subtracting the uptake rate of probe substrates or valsartan into HEK293-mock cells from that into HEK293 cells expressing respective transporters.

[1] = repeated red ginseng extract 3 g/day ref 14, 41; cited from earlier work
[2] = Protein binding in rat plasma by rapid equilibrium dialysis; format: in vitro ADME; conditions: rapid equilibrium dialysis 4 h 37 °C
Method: The protein binding of Rb1, Rb2, and Rc (1 μM) in rat plasma and liver homogenate was determined using a rapid equilibrium dialysis kit (ThermoFisher Scientific Korea, Seoul, Korea) according to the manufacturer’s instructions. Briefly, 100 μL of rat plasma and 10% liver homogenate samples containing Rb1, Rb2, or Rc (1 μM) were added to the sample chamber of a semipermeable membrane (molecular weight cut-off 8000 Da) and 300 μL of HBSS was added to the outer buffer chamber. Four hours after incubation at 37 °C on a shaking incubator at 300 rpm, aliquots (50 μL) were collected from both the sample and buffer chambers and treated with equal volumes of fresh HBSS and plasma, respectively, to match the sample matrices. The matrix-matched samples (100 μL) were mixed with 300 μL of 80% ice-cold methanol containing berberine 0.05 ng/mL and 0.1% formic acid for 15 min.
Plasma protein binding was calculated using the following equation [47]. (1) Undiluted free drug fraction fu= Drug concentration in buffer chamber/Drug concentration in plasma chamber

[3] = read-out: IC50 OCT1, HEK293-OCT1, 0.1 μM [3H]MPP+ uptake, 5 min

SMILES: CC(C)=CCCC(C)(O)[C@H]1CC[C@]2(C)[C@@H]1[C@H](O)C[C@@H]1[C@@]3(C)CC[C@H](O)C(C)(C)[C@@H]3CC[C@]12C (stereo in doubt) [PPD, protopanaxadiol]
IC50 (OCT1; [3]): > 100 µM

SMILES: CC(C)=CCC[C@](C)(O)[C@H]1CC[C@]2(C)[C@@H]1[C@H](O)C[C@@H]1[C@@]3(C)CC[C@H](O[C@@H]4O[C@H](CO)[C@@H](O)[C@H](O)[C@H]4O[C@@H]4O[C@H](CO)[C@@H](O)[C@H](O)[C@H]4O)C(C)(C)[C@@H]3CC[C@]12C [Rg3, ginsenoside Rg3]
IC50 (OCT1; [3]): > 100 µM
IC50 (UGT1A9): 15.1 µM

IC50 (OCT1): > 100 µM
SMILES: CC(C)=CCC[C@](C)(O[C@@H]1O[C@H](CO)[C@@H](O)[C@H](O)[C@H]1O)[C@H]1CC[C@]2(C)[C@@H]1[C@H](O)C[C@@H]1[C@@]3(C)CC[C@H](O)C(C)(C)[C@@H]3[C@@H](O[C@@H]3O[C@H](CO)[C@@H](O)[C@H](O)[C@H]3O)C[C@]12C [Rg1, ginsenoside Rg1]
IC50 UGT1A9 (UGT1A9): did not inhibit

SMILES: CC(C)=CCC[C@](C)(O)[C@H]1CC[C@]2(C)[C@@H]1[C@H](O)C[C@@H]1[C@@]3(C)CC[C@H](O)C(C)(C)[C@@H]3[C@@H](O[C@@H]3O[C@H](CO)[C@@H](O)[C@H](O)[C@H]3O)C[C@]12C [Rh1, ginsenoside Rh1]
IC50 (OCT1): > 100 µM

SMILES: CC(C)=CCC[C@](C)(O)[C@H]1CC[C@]2(C)[C@@H]1[C@H](O)C[C@@H]1[C@@]3(C)CC[C@H](O[C@@H]4O[C@H](CO)[C@@H](O)[C@H](O)[C@H]4O)C(C)(C)[C@@H]3CC[C@]12C [Rh2, ginsenoside Rh2]
IC50 (OCT1): > 100 µM

IC50 (OCT1): > 100 µM
SMILES: CC(C)=CCC[C@](C)(O[C@@H]1O[C@H](CO)[C@@H](O)[C@H](O)[C@H]1O)[C@H]1CC[C@]2(C)[C@@H]1[C@H](O)C[C@@H]1[C@@]3(C)CC[C@H](O[C@@H]4O[C@H](CO)[C@@H](O)[C@H](O)[C@H]4O[C@@H]4O[C@H](CO)[C@@H](O)[C@H](O)[C@H]4O)C(C)(C)[C@@H]3CC[C@]12C [Rd, ginsenoside Rd]

IC50 (OCT1; [3]): > 100 µM
SMILES: CC(C)=CCC[C@](C)(O[C@@H]1O[C@H](CO)[C@@H](O)[C@H](O)[C@H]1O)[C@H]1CC[C@]2(C)[C@@H]1[C@H](O)C[C@@H]1[C@@]3(C)CC[C@H](O)C(C)(C)[C@@H]3CC[C@]12C [Compound K, compound K]

IC50 (OCT1): > 100 µM
SMILES: CC(C)=CCC[C@](C)(O[C@@H]1O[C@H](CO)[C@@H](O)[C@H](O)[C@H]1O)[C@H]1CC[C@]2(C)[C@@H]1[C@H](O)C[C@@H]1[C@@]3(C)CC[C@H](O)C(C)(C)[C@@H]3[C@@H](O[C@@H]3O[C@H](CO)[C@@H](O)[C@H](O)[C@H]3O[C@@H]3O[C@@H](C)[C@H](O)[C@@H](O)[C@H]3O)C[C@]12C [Re, ginsenoside Re]
IC50 UGT1A9 (UGT1A9): did not inhibit

IC50 (OATP1B1): 8.8 µM
IC50 (OCT1): > 100 µM
fraction unbound at 4 h, 1 μM [2]: 0.001 ± 4e-08
SMILES: CC(C)=CCC[C@](C)(O[C@@H]1O[C@H](CO[C@@H]2OC[C@H](O)[C@H](O)[C@H]2O)[C@@H](O)[C@H](O)[C@H]1O)[C@H]1CC[C@]2(C)[C@@H]1[C@H](O)C[C@@H]1[C@@]3(C)CC[C@H](O[C@@H]4O[C@H](CO)[C@@H](O)[C@H](O)[C@H]4O[C@@H]4O[C@H](CO)[C@@H](O)[C@H](O)[C@H]4O)C(C)(C)[C@@H]3CC[C@]12C [Rb2, ginsenoside Rb2]
maximum concentration in human blood [1]: 6.2 to 12.7 nM

IC50 (OATP1B1): 13.6 µM
IC50 (OCT1): > 100 µM
fraction unbound at 4 h, 1 μM [2]: 0.001 ± 7.01e-08
SMILES: CC(C)=CCC[C@](C)(O[C@@H]1O[C@H](CO[C@@H]2O[C@@H](CO)[C@H](O)[C@H]2O)[C@@H](O)[C@H](O)[C@H]1O)[C@H]1CC[C@]2(C)[C@@H]1[C@H](O)C[C@@H]1[C@@]3(C)CC[C@H](O[C@@H]4O[C@H](CO)[C@@H](O)[C@H](O)[C@H]4O[C@@H]4O[C@H](CO)[C@@H](O)[C@H](O)[C@H]4O)C(C)(C)[C@@H]3CC[C@]12C [Rc, ginsenoside Rc]
maximum concentration in human blood [1]: 6.2 to 12.7 nM

IC50 (OATP1B1): 24.1 µM
IC50 (OCT1): > 100 µM
fraction unbound at 4 h, 1 μM [2]: 0.002
SMILES: CC(C)=CCC[C@](C)(O[C@@H]1O[C@H](CO[C@@H]2O[C@H](CO)[C@@H](O)[C@H](O)[C@H]2O)[C@@H](O)[C@H](O)[C@H]1O)[C@H]1CC[C@]2(C)[C@@H]1[C@H](O)C[C@@H]1[C@@]3(C)CC[C@H](O[C@@H]4O[C@H](CO)[C@@H](O)[C@H](O)[C@H]4O[C@@H]4O[C@H](CO)[C@@H](O)[C@H](O)[C@H]4O)C(C)(C)[C@@H]3CC[C@]12C [Rb1, ginsenoside Rb1]
IC50 (UGT1A9): 21.3 µM
maximum concentration in human blood [1]: 6.2 to 12.7 nM

SMILES: CC(C)=CCC[C@](C)(O)[C@H]1CC[C@]2(C)[C@@H]1[C@H](O)C[C@@H]1[C@@]3(C)CC[C@H](O)C(C)(C)[C@@H]3[C@@H](O)C[C@]12C [PPT, protopanaxatriol]
IC50 (OCT1; [3]): > 100 µM
